Values joined by “and” are separate entries in the source; they are usually repeats but may differ in a detail not shown here. Identical values can stand only once.
Tested on: 454973-116-R2-J3-PDC spheroids, percent test/control viability
Assay: Anticancer human tumor 454973-116-R2-J3-PDC patient-derived pancreatic carcinoma cell line growth inhibition [CLK]
Settings: spheroids with HUVEC and MSC; for viability, T/C: stronger effect = lower value
In short: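 Multi-cell-type spheroids combined patient-derived tumor cells with HUVEC endothelial cells and human mesenchymal stem cells. Paired agents were dosed in half-log steps down from about clinical Cmax, or from 10 microM where Cmax was unknown.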

[1] = curve of first compound, second compound 0.0316 µM
[2] = curve of first compound, second compound 0.1 µM
[3] = curve of first compound, second compound 0.316 µM
[4] = curve of first compound, second compound 1 µM
[5] = curve of first compound, second compound 3.16 µM
[6] = curve of first compound, second compound 10 µM
[7] = second compound 0.0316 µM, first compound 0.0316 µM
[8] = second compound 0.0316 µM, first compound 0.1 µM
[9] = second compound 0.0316 µM, first compound 0.316 µM
[10] = second compound 0.0316 µM, first compound 1 µM
[11] = second compound 0.0316 µM, first compound 3.16 µM
[12] = second compound 0.0316 µM, first compound 10 µM
[13] = second compound 0.1 µM, first compound 0.0316 µM
[14] = second compound 0.1 µM, first compound 0.1 µM
[15] = second compound 0.1 µM, first compound 0.316 µM
[16] = second compound 0.1 µM, first compound 1 µM
[17] = second compound 0.1 µM, first compound 3.16 µM
[18] = second compound 0.1 µM, first compound 10 µM
[19] = second compound 0.316 µM, first compound 0.0316 µM
[20] = second compound 0.316 µM, first compound 0.1 µM
[21] = second compound 0.316 µM, first compound 0.316 µM
[22] = second compound 0.316 µM, first compound 1 µM
[23] = second compound 0.316 µM, first compound 3.16 µM
[24] = second compound 0.316 µM, first compound 10 µM
[25] = second compound 1 µM, first compound 0.0316 µM
[26] = second compound 1 µM, first compound 0.1 µM
[27] = second compound 1 µM, first compound 0.316 µM
[28] = second compound 1 µM, first compound 1 µM
[29] = second compound 1 µM, first compound 3.16 µM
[30] = second compound 1 µM, first compound 10 µM
[31] = second compound 3.16 µM, first compound 0.0316 µM
[32] = second compound 3.16 µM, first compound 0.1 µM
[33] = second compound 3.16 µM, first compound 0.316 µM
[34] = second compound 3.16 µM, first compound 1 µM
[35] = second compound 3.16 µM, first compound 3.16 µM
[36] = second compound 3.16 µM, first compound 10 µM
[37] = second compound 10 µM, first compound 0.0316 µM
[38] = second compound 10 µM, first compound 0.1 µM
[39] = second compound 10 µM, first compound 0.316 µM
[40] = second compound 10 µM, first compound 1 µM
[41] = second compound 10 µM, first compound 3.16 µM
[42] = second compound 10 µM, first compound 10 µM
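Further: spheroids exposed to compounds for 7 days before readout.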

In the case of `C=CC(=O)Nc1cc(Nc2nccc(-c3cn(C)c4ccccc34)n2)c(OC)cc1N(C)CCN(C)C` + CN1CCN(c2cc(C(=O)Nc3cc4cc(-c5cnn(C)c5)ccc4cn3)ccn2)CC1, the IC50 [1] is reported as > 300 nM, the IC50 [2] is reported as > 300 nM and the IC50 [3] is reported as < 0.949 nM. The IC50 [4] was < 0.949 nM, the IC50 [5] was < 0.949 nM and the IC50 [6] was < 0.949 nM. For the same compound, the viability, T/C (second compound 0.0316 µM, first compound 0.000949 µM) was 95.6%, the viability, T/C (second compound 0.0316 µM, first compound 0.003 µM) was 107% and the viability, T/C (second compound 0.0316 µM, first compound 0.00949 µM) was 96.8%. It also gave a viability, T/C (second compound 0.0316 µM, first compound 0.03 µM) of 104%, a viability, T/C (second compound 0.0316 µM, first compound 0.0949 µM) of 102% and a viability, T/C (second compound 0.0316 µM, first compound 0.3 µM) of 98.3%. The viability, T/C (second compound 0.1 µM, first compound 0.000949 µM) was 72.8%, the viability, T/C (second compound 0.1 µM, first compound 0.003 µM) was 76.6% and the viability, T/C (second compound 0.1 µM, first compound 0.00949 µM) was 77.1%. The viability, T/C (second compound 0.1 µM, first compound 0.03 µM) was 77.1%, the viability, T/C (second compound 0.1 µM, first compound 0.0949 µM) was 79% and the viability, T/C (second compound 0.1 µM, first compound 0.3 µM) was 72%. It also gave a viability, T/C (second compound 0.316 µM, first compound 0.000949 µM) of 1.85%, a viability, T/C (second compound 0.316 µM, first compound 0.003 µM) of 4.04% and a viability, T/C (second compound 0.316 µM, first compound 0.00949 µM) of 1.97%. The viability, T/C (second compound 0.316 µM, first compound 0.03 µM) was 3.67%, the viability, T/C (second compound 0.316 µM, first compound 0.0949 µM) was 1.83% and the viability, T/C (second compound 0.316 µM, first compound 0.3 µM) was 1.5%. For the same compound, the viability, T/C (second compound 1 µM, first compound 0.000949 µM) was 0.13%, the viability, T/C (second compound 1 µM, first compound 0.003 µM) was 0.14% and the viability, T/C (second compound 1 µM, first compound 0.00949 µM) was 0.14%. The viability, T/C (second compound 1 µM, first compound 0.03 µM) was 0.1%, the viability, T/C (second compound 1 µM, first compound 0.0949 µM) was 0.12% and the viability, T/C (second compound 1 µM, first compound 0.3 µM) was 0.12%. For the same compound, the viability, T/C (second compound 3.16 µM, first compound 0.000949 µM) was 0.15%, the viability, T/C (second compound 3.16 µM, first compound 0.003 µM) was 0.21% and the viability, T/C (second compound 3.16 µM, first compound 0.00949 µM) was 0.2%. It also gave a viability, T/C (second compound 3.16 µM, first compound 0.03 µM) of 0.2%, a viability, T/C (second compound 3.16 µM, first compound 0.0949 µM) of 1.74% and a viability, T/C (second compound 3.16 µM, first compound 0.3 µM) of 0.35%. The viability, T/C (second compound 10 µM, first compound 0.000949 µM) was 0.31%, the viability, T/C (second compound 10 µM, first compound 0.003 µM) was 0.26% and the viability, T/C (second compound 10 µM, first compound 0.00949 µM) was 0.21%. The viability, T/C (second compound 10 µM, first compound 0.03 µM) was 0.29%, the viability, T/C (second compound 10 µM, first compound 0.0949 µM) was 2.12% and the viability, T/C (second compound 10 µM, first compound 0.3 µM) was 2.07%.
For `Nc1ccn(C2OC(CO)C(O)C2(F)F)c(=O)n1` (stereo not drawn) + CN1CCN(c2cc(C(=O)Nc3cc4cc(-c5cnn(C)c5)ccc4cn3)ccn2)CC1, the IC50 [1] was < 31.6 nM, the IC50 [2] was < 31.6 nM and the IC50 [3] was < 31.6 nM. For the same compound, the IC50 [4] was < 31.6 nM, the IC50 [5] was < 31.6 nM and the IC50 [6] was < 31.6 nM. For the same compound, the viability, T/C [7] was 10.3%, the viability, T/C [8] was 9.2% and the viability, T/C [9] was 11.2%. The viability, T/C [10] was 10.4%, the viability, T/C [11] was 11% and the viability, T/C [12] was 12.3%. It also gave a viability, T/C [13] of 10.3%, a viability, T/C [14] of 10.5% and a viability, T/C [15] of 8.35%. For the same compound, the viability, T/C [16] was 11.8%, the viability, T/C [17] was 12.8% and the viability, T/C [18] was 10.7%. It also gave a viability, T/C [19] of 1.34%, a viability, T/C [20] of 3.55% and a viability, T/C [21] of 1.4%. For the same compound, the viability, T/C [22] was 1.47%, the viability, T/C [23] was 1.66% and the viability, T/C [24] was 1.1%. For the same compound, the viability, T/C [25] was 1.36%, the viability, T/C [26] was 0.1% and the viability, T/C [27] was 0.67%. The viability, T/C [28] was 0.06%, the viability, T/C [29] was 0.07% and the viability, T/C [30] was 1.87%. It also gave a viability, T/C [31] of 0.13%, a viability, T/C [32] of 0.16% and a viability, T/C [33] of 0.18%. For the same compound, the viability, T/C [34] was 0.15%, the viability, T/C [35] was 0.15% and the viability, T/C [36] was 0.15%. It also gave a viability, T/C [37] of 0.16%, a viability, T/C [38] of 0.66% and a viability, T/C [39] of 0.22%. It also gave a viability, T/C [40] of 1.09%, a viability, T/C [41] of 0.2% and a viability, T/C [42] of 1.04%.
For `CCCS(=O)(=O)Nc1ccc(F)c(C(=O)c2c[nH]c3ncc(-c4ccc(Cl)cc4)cc23)c1F` + CNC(=O)c1ccc(Nc2nc(OC3CCCC3)c3c(-c4ccc5nc(C)oc5c4)c[nH]c3n2)c(OC)c1, the IC50 [1] was 6960 nM, the IC50 [2] was 7250 nM and the IC50 [3] was 31.6 nM. For the same compound, the IC50 [4] was < 31.6 nM, the IC50 [5] was < 31.6 nM and the IC50 [6] was < 31.6 nM. For the same compound, the viability, T/C [7] was 96%, the viability, T/C [8] was 107% and the viability, T/C [9] was 102%. The viability, T/C [10] was 126%, the viability, T/C [11] was 107% and the viability, T/C [12] was 23.8%. The viability, T/C [13] was 97.5%, the viability, T/C [14] was 106% and the viability, T/C [15] was 111%. For the same compound, the viability, T/C [16] was 111%, the viability, T/C [17] was 109% and the viability, T/C [18] was 27.9%. The viability, T/C [19] was 48.2%, the viability, T/C [20] was 45.2% and the viability, T/C [21] was 45.5%. The viability, T/C [22] was 51.2%, the viability, T/C [23] was 53% and the viability, T/C [24] was 14.4%. The viability, T/C [25] was 32.2%, the viability, T/C [26] was 33.6% and the viability, T/C [27] was 33%. It also gave a viability, T/C [28] of 37%, a viability, T/C [29] of 32% and a viability, T/C [30] of 12.9%. The viability, T/C [31] was 27.9%, the viability, T/C [32] was 27.3% and the viability, T/C [33] was 31.6%. For the same compound, the viability, T/C [34] was 36.7%, the viability, T/C [35] was 29.7% and the viability, T/C [36] was 10.4%. It also gave a viability, T/C [37] of 26.2%, a viability, T/C [38] of 23.9% and a viability, T/C [39] of 25.9%. The viability, T/C [40] was 29.4%, the viability, T/C [41] was 31.9% and the viability, T/C [42] was 9.04%.
In the case of `CC(Nc1ccc2c(c1)OCCn1cc(N3C(=O)OCC3C(F)F)nc1-2)C(N)=O` (stereo not drawn), the viability, T/C (compound 0.0316 µM) is reported as 98.3% and 101%, the viability, T/C (compound 0.1 µM) is reported as 95.5% and 92.3% and the viability, T/C (compound 0.316 µM) is reported as 99.5% and 84%. For the same compound, the viability, T/C (compound 1 µM) was 84.7% and 86.1%, the viability, T/C (compound 3.16 µM) was 78.1% and 71% and the viability, T/C (compound 10 µM) was 54.1% and 45%. The IC50 (curve of compound) was > 10000 nM and 8310 nM.
